Results from patent US20240261414A1, “FATTY ACID AMIDE HYDROLASE (FAAH) CLEAVABLE PRODRUGS OF BRAIN TARGETING ACTIVES AND COMBINATION WITH PERIPHERALLY RESTRICTED FAAH INHIBITORS” (Autobahn Therapeutics, Inc., priority 2021, published 2024).

molecular target: T1, recombinant human FAAH (rhFAAH) (Homo sapiens, UniProt O00519); experiment: FAAH substrate evaluation (acid metabolite formation); assay type: biochemical; conditions: 0.5 ng/L rhFAAH, 1 μM test compound, Tris-EDTA buffer pH 8.0, room temperature, 0-60 minutes
T1 construct: purchased Cayman Chemical (Ann Arbor, MI, USA)
T1 sequence (O00519 1-579): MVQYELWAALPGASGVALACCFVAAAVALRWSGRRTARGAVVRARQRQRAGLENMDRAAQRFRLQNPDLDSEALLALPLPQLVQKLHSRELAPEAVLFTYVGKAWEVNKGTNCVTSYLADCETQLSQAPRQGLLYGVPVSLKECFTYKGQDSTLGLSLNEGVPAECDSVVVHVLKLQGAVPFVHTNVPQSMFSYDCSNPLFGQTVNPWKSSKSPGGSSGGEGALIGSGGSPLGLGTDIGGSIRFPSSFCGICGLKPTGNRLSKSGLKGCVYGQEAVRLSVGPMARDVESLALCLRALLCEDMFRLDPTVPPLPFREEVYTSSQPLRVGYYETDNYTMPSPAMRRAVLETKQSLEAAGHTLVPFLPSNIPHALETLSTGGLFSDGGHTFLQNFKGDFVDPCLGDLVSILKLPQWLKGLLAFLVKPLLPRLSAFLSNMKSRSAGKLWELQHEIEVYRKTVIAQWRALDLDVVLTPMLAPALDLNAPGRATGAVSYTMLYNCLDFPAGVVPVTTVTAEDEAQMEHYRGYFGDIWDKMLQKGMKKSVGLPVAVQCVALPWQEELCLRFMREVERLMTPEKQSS
Protocol: Purified recombinant human FAAH (rhFAAH) was purchased from Cayman Chemical (Ann Arbor, MI, USA). The total volume for each incubation was 400 μL containing a final 0.5 ng/L rhFAAH, 1 μM test compound, 1.25% ethanol or 1 μM PF-3845 (FAAH inhibitor), and 0.1% bovine serum albumin in Tris-EDTA buffer at pH 8.0). The positive control was LL-341001. The incubation was conducted at the room temperature. At 0, 5, 15, 30 and 60 minutes, an aliquot of 30 μL reaction mixtures was removed and mixed with 300 μL acetonitrile containing 5 ng/mL terfenadine and 10 ng/mL tolbutamide as internal standards to quench the reaction. The resulting mixture was centrifuged at 4000 rpm, 4° C. for 15 minutes, and 100 μL supernatant was ready for LC-MS/MS analysis to measure the formation of acid metabolite.
Acquity Ultra Performance LC system from Waters was used for sample analysis. The chromatography was performed on a reverse phase Kinetex 2.6 μm C18 column, 2.1×30 mm, 100 Å. The mobile phase A comprised of 0.1% formic acid in water and mobile phase B comprised of 0.1% formic acid in acetonitrile with a 2-min run time at the flow rate of 0.8 mL/min for the acid metabolite from positive control or a 1.5 min run time at the flow rate of 0.9 mL/min for the acid metabolite of test compounds. The mass spectrometer (API-5500 and API Q Trap 4000 Applied Biosystems/MDS SCIEX Instruments, Framingham, MA, USA) was operated under ESI positive or negative ion MRM mode.
The formation of acid metabolite was monitored and quantified using one calibration point of 1 μM. The observed rate constant (ke) for the acid metabolite formation was calculated by plotting the metabolite concentration versus time of incubation with the slope being ke and is shown in Table 2.

SMILES	ke (observed rate constant for the acid metabolite formation)
COc1ccc(NC(=O)c2ccc3nc(-c4cc(Cl)cc(Cl)c4)oc3c2)cn1 [Compound 51]	A (ke is more than or equal to 1.0)
Cc1c(C=CC(=O)Nc2cccnn2)ccc(OCc2cc(Cl)cc3c2OC(C)(C)C3)c1C [Compound 2, 3-(4-((5-chloro-2,2-dimethyl-2,3-dihydrobenzofuran-7-yl)methoxy)-2,3-dimethylphenyl)-N-(pyridazin-3-yl)propenamide]	B (ke is less than 1.0 and more than or equal to 0.1)
Cc1c(C=CC(N)=O)ccc(OCc2cc(Cl)cc3c2OC(C)(C)C3)c1C [Compound 9, 3-(4-((5-chloro-2,2-dimethyl-2,3-dihydrobenzofuran-7-yl)methoxy)-2,3-dimethylphenyl)propenamide]	A (ke is more than or equal to 1.0)
COc1ccc(NC(=O)c2ccc(F)c(OCCCc3c(C)n[nH]c3C)c2)cn1 [Compound 29]	B (ke is less than 1.0 and more than or equal to 0.1)
CCc1cc(/C(C)=N/OCc2ccc(C3CCCCC3)c(C(F)(F)F)c2)ccc1CN1CC(C(=O)NC)C1 [Compound 18]	B (ke is less than 1.0 and more than or equal to 0.1)
CCCCC[C@H](O)CC[C@@H]1[C@H]2Cc3cccc(OCC(=O)N[C@H]4C[C@H]4F)c3C[C@H]2C[C@H]1O [Compound 49]	C (ke is less than 0.1 and more than 0)
Cc1noc(NC(=O)CCSCc2ccc(-c3onc(C)c3NC(=O)OC(C)c3ccccc3Cl)cc2)c1C (centres unmarked) [Compound 34]	D (ke is 0)
CNC(=O)CCc1ccc(OCc2cc(Cl)cc3c2OC(C)(C)C3)c(C)c1C [Compound 10, 3-(4-((5-chloro-2,2-dimethyl-2,3-dihydrobenzofuran-7-yl)methoxy)-2,3-dimethylphenyl)-N-methylpropanamide]	A (ke is more than or equal to 1.0)
CCc1cc(/C(C)=N/OCc2ccc(C3CCCCC3)c(C(F)(F)F)c2)ccc1CN1CC(C(=O)NCCCF)C1 [Compound 39]	B (ke is less than 1.0 and more than or equal to 0.1)
CNC(=O)CCSCc1ccc(-c2onc(C)c2NC(=O)O[C@H](C)c2ccccc2Cl)cc1 [Compound 23]	B (ke is less than 1.0 and more than or equal to 0.1)
CNC(=O)c1ccc2nc(-c3cc(Cl)cc(Cl)c3)oc2c1 [Compound 16]	D (ke is 0)
